Values of other authors in US9289389B2, “Method for producing matrix-type pharmaceutical solid preparation” (OTSUKA PHARMACEUTICAL CO., LTD., priority 2007, dated 2016).

Details: water 20° C.

Compound	amount of water necessary to dissolve 1 g [g]
OC[C@H]1O[C@H](O[C@H]2[C@H](O)[C@@H](O)C(O)O[C@@H]2CO)[C@H](O)[C@@H](O)[C@@H]1O (mixture of isomers) [maltose monohydrate]	1.2
OC[C@@H](O)[C@@H](O[C@@H]1O[C@H](CO)[C@H](O)[C@H](O)[C@H]1O)[C@H](O)[C@@H](O)CO [lactitol]	1.8

Further lines, results first:

amount of water necessary to dissolve 1 g [g]	Compound
1.6	OC[C@@H](O)[C@H](O)[C@@H](O)CO [xylitol]
1.2	OC[C@H]1O[C@H](O[C@H]2O[C@H](CO)[C@@H](O)[C@H](O)[C@H]2O)[C@H](O)[C@@H](O)[C@@H]1O [trehalose dihydrate]

Same assay, conditions: water 25° C.

amount of water necessary to dissolve 1 g	Compound
3.3 g	OC[C@@H](O)[C@@H](O)CO [erythritol]
0.5 mL (g)	OC[C@@H](O)[C@@H](O)[C@H](O)[C@@H](O)CO [sorbitol]

Same assay, conditions: water temperature not stated

amount of water necessary to dissolve 1 g of sugar and/or sugar alcohol	Compound
easily soluble	OC[C@@H](O)[C@@H](O[C@H]1O[C@H](CO)[C@@H](O)[C@H](O)[C@H]1O)[C@H](O)[C@@H](O)CO [maltitol]
0.5 g	OC[C@H]1O[C@@](CO)(O[C@H]2O[C@H](CO)[C@@H](O)[C@H](O)[C@H]2O)[C@@H](O)[C@@H]1O [sucrose]
0.3 g	O=C(CO)[C@@H](O)[C@H](O)[C@H](O)CO [fructose]
